How the values were obtained:
Trypanosoma cruzi = test: Trypanocidal activity against Trypanosoma cruzi Y bloodstream trypomastigotes in presence of 10% mouse blood assessed as induction of parasite lysis incubated for 24 hrs by Neubauer chamber based cell counting method; format: functional, organism-based
[1] = Selectivity index, ratio of LC50 for mouse HMC to IC50 for Trypanosoma cruzi Y bloodstream trypomastigotes
[2] = Toxicity against mouse HMC incubated for 24 hrs; settings: HMC cells, read-out: LC50

Row | SMILES | IC50 (Trypanosoma cruzi) [µM] | Ratio LC50/IC50 [1] | CC50 at 24 h [2] [µM]
1 | CC1(C)OC2=C(C(=O)C(=O)c3ccccc32)C1Sc1ccccc1 (stereo not given) | 32.3 | 0.54 | 17.5
2 | CC1(C)OC2=C(C(=O)C(=O)c3ccccc32)C1Sc1ccc(F)cc1 (stereo not given) | 165 |  | 
3 | Cc1ccc(SC2C3=C(OC2(C)C)c2ccccc2C(=O)C3=O)cc1 (stereo not given) | 59.5 | 0.34 | 20.5
4 | Cc1cccc(SC2C3=C(OC2(C)C)c2ccccc2C(=O)C3=O)c1 (stereo not given) | 83.6 | 0.31 | 25.8
5 | COc1ccc(SC2C3=C(OC2(C)C)c2ccccc2C(=O)C3=O)cc1 (stereo not given) | 158 |  | 
6 | CC1(C)OC2=C(C(=O)C(=O)c3ccccc32)C1Sc1c(F)c(F)c(F)c(F)c1F (stereo not given) | 183 |  | 
7 | CC1(C)OC2=C(C(=O)C(=O)c3ccccc32)C1Sc1ccc(Cl)cc1 (stereo not given) | 9.2 | 4.23 | 38.9

Reference: ChEMBL document CHEMBL3593167, “Synthesis and anti-Trypanosoma cruzi activity of new 3-phenylthio-nor-β-lapachone derivatives” (Bioorg Med Chem, 2015)
